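Compound exposure: 48 hours, 5 concentrations, 96-well plates. TGI: total growth inhibition.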
Assays:
Assay in all cases: growth of human tumour cells (NCI), 48 h
[1] = test system: EKVX NSCLC
[2] = test system: T-47D breast
[3] = test system: UACC-257 melanoma
[4] = test system: SK-MEL-5 melanoma
[5] = test system: RXF 393 renal
[6] = test system: COLO 205 colon
[7] = test system: UO-31 renal
[8] = test system: HT29 colon
[9] = test system: MDA-N
[10] = test system: MCF7 breast
[11] = test system: NCI-H23 lung
[12] = test system: SF-295 CNS
[13] = test system: 786-0 renal
[14] = test system: SF-539 CNS
[15] = test system: KM12 colon
[16] = test system: A498 renal
[17] = test system: TK-10 renal
[18] = test system: CAKI-1 renal
[19] = test system: RPMI-8226 leukemia
[20] = test system: NCI-H226 lung
[21] = test system: HCT-15 colon
[22] = test system: NCI/ADR-RES ovarian
[23] = test system: SK-MEL-28 melanoma
[24] = test system: DU-145 prostate
[25] = test system: UACC-62 melanoma
[26] = test system: SF-268 CNS
[27] = test system: IGROV1 ovarian
[28] = test system: MDA-MB-231 breast
[29] = test system: K-562 leukemia
[30] = test system: SNB-75 CNS
[31] = test system: PC-3 prostate
[32] = test system: MOLT-4 leukemia
[33] = test system: MALME-3M melanoma
[34] = test system: SN12C renal
[35] = test system: HCC-2998 colon
[36] = test system: SK-OV-3 ovarian
[37] = test system: HOP-62 NSCLC
[38] = test system: BT-549 breast
[39] = test system: SNB-19 CNS
[40] = test system: CCRF-CEM leukemia
[41] = test system: A549 NSCLC
[42] = test system: OVCAR-5 ovarian
[43] = test system: ACHN renal
[44] = test system: SR leukemia
[45] = test system: SW-620 colon
[46] = test system: U251 CNS
[47] = test system: MDA-MB-435
[48] = test system: OVCAR-8 ovarian
[49] = test system: NCI-H460 lung
[50] = test system: HCT-116 colon
[51] = test system: OVCAR-4 ovarian
[52] = test system: M14 melanoma
[53] = test system: HOP-92 NSCLC
[54] = test system: NCI-H522 lung
[55] = test system: HL-60(TB) leukemia
[56] = test system: HS 578T breast
[57] = test system: SK-MEL-2 melanoma
[58] = test system: LOX IMVI melanoma
[59] = test system: OVCAR-3 ovarian

SMILES: CC(=O)O[C@H]1C(=O)[C@@]2(C)[C@H]([C@H](OC(=O)c3ccc([N+](=O)[O-])cc3)[C@]3(O)C[C@H](OC(=O)[C@H](O)[C@@H](NC(=O)c4ccccc4)c4ccccc4)C(C)=C1C3(C)C)[C@]1(OC(C)=O)CO[C@@H]1C[C@@H]2O
- TGI [1]: > 25 µM
- TGI [2]: > 25 µM
- TGI [3]: > 25 µM
- TGI [4]: > 25 µM
- TGI [5]: > 25 µM
- TGI [6]: > 25 µM
- TGI [7]: > 25 µM
- TGI [8]: > 25 µM
- TGI [9]: > 25 µM
- TGI [10]: > 25 µM
- TGI [11]: > 25 µM
- TGI [12]: > 25 µM
- TGI [13]: > 25 µM
- TGI [14]: > 25 µM
- TGI [15]: > 25 µM
- TGI [16]: > 25 µM
- TGI [17]: > 25 µM
- TGI [18]: > 25 µM
- TGI [19]: > 25 µM
- TGI [20]: > 25 µM
- TGI [21]: > 25 µM
- TGI [22]: > 25 µM
- TGI [23]: > 25 µM
- TGI [24]: > 25 µM
- TGI [25]: > 25 µM
- TGI [26]: > 25 µM
- TGI [27]: > 25 µM
- TGI [28]: > 25 µM
- TGI [29]: > 25 µM
- TGI [30]: > 25 µM
- TGI [31]: > 25 µM
- TGI [32]: > 25 µM
- TGI [33]: > 25 µM
- TGI [34]: > 25 µM
- TGI [35]: > 25 µM
- TGI [36]: > 25 µM
- TGI [37]: > 25 µM
- TGI [38]: > 25 µM
- TGI [39]: > 25 µM
- TGI [40]: > 25 µM
- TGI [41]: > 25 µM
- TGI [42]: > 25 µM
- TGI [43]: > 25 µM
- TGI [44]: > 25 µM
- TGI [45]: > 25 µM
- TGI [46]: > 25 µM
- TGI [47]: > 25 µM
- TGI [48]: > 25 µM
- TGI [49]: > 25 µM
- TGI [50]: > 25 µM
- TGI [51]: > 25 µM
- TGI [52]: > 25 µM
- TGI [53]: > 25 µM
- TGI [54]: > 25 µM
- TGI [55]: > 25 µM
- TGI [56]: > 25 µM

SMILES: COC1C=C(NCC2(CO)CCC2)NC(N)=N1 (configuration not stated)
- TGI [1]: > 100 µM
- TGI [2]: > 100 µM
- TGI [3]: > 100 µM
- TGI [4]: > 100 µM
- TGI [5]: > 100 µM
- TGI [6]: > 100 µM
- TGI [7]: > 100 µM
- TGI [8]: > 100 µM
- TGI [9]: > 100 µM
- TGI [10]: > 100 µM
- TGI [11]: > 100 µM
- TGI [12]: > 100 µM
- TGI [13]: > 100 µM
- TGI [15]: > 100 µM
- TGI [16]: > 100 µM
- TGI [18]: > 100 µM
- TGI [19]: > 100 µM
- TGI [20]: > 100 µM
- TGI [21]: > 100 µM
- TGI [22]: > 100 µM
- TGI [57]: > 100 µM
- TGI [23]: > 100 µM
- TGI [24]: > 100 µM
- TGI [25]: > 100 µM
- TGI [26]: > 100 µM
- TGI [27]: > 100 µM
- TGI [28]: > 100 µM
- TGI [29]: > 100 µM
- TGI [30]: > 100 µM
- TGI [31]: > 100 µM
- TGI [58]: > 100 µM
- TGI [32]: > 100 µM
- TGI [33]: > 100 µM
- TGI [34]: > 100 µM
- TGI [35]: > 100 µM
- TGI [36]: > 100 µM
- TGI [37]: > 100 µM
- TGI [38]: > 100 µM
- TGI [39]: > 100 µM
- TGI [40]: > 100 µM
- TGI [41]: > 100 µM
- TGI [42]: > 100 µM
- TGI [44]: > 100 µM
- TGI [45]: > 100 µM
- TGI [46]: > 100 µM
- TGI [47]: > 100 µM
- TGI [48]: > 100 µM
- TGI [49]: > 100 µM
- TGI [59]: > 100 µM
- TGI [50]: > 100 µM
- TGI [51]: > 100 µM
- TGI [52]: > 100 µM
- TGI [53]: > 100 µM
- TGI [54]: > 100 µM
- TGI [55]: > 100 µM
- TGI [56]: > 100 µM
